Measured values: patent publication US20230192617A1, “AZABICYCLIC(THIO)AMIDES AS FUNGICIDAL COMPOUNDS” (Bayer CropScience Aktiengesellschaft, priority 2020, published 2023)

Experiments:
[1] = system: Colletotrichum lindemuthianum; test: In vivo preventive test on Colletotrichum lindemuthianum (leaf spot on bean); conditions: 168 h, 500 ppm of active ingredient, preventive spray on bean, evaluated 7 days after inoculation, read-out: efficacy
Outline: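 Young bean plants sprayed with compound in DMSO/acetone/Tween 80 diluted in water; solvent-only controls. Inoculated 24 h later with C. lindemuthianum spore suspension, then kept 24 h at 20 °C/100% RH and 6 days at 20 °C/90% RH.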

Pyrenophora teres [2] = test: B-10. Pyrenophora teres in vitro cell test; type: cell-based; conditions: 144 h, 20 ppm of active ingredient, 6 days incubation, liquid culture, absorbance, read-out: efficacy (inhibition of fungal growth)
Outline: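 Liquid-culture assay on a P. teres spore suspension with compounds added to the medium from DMSO solutions, final DMSO ≤1%. Mycelium growth read spectrometrically after 6 days. Inhibition calculated from absorbance against untreated control wells.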

Botrytis cinerea = test: B-11. Botrytis cinerea in vitro cell test; type: cell-based; conditions: 144 h, 20 ppm of active ingredient, 6 days incubation, liquid culture, absorbance, read-out: efficacy (inhibition of fungal growth)
Outline: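 B. cinerea spores were grown in liquid culture with compound (DMSO ≤1% final). Mycelium growth was measured spectrometrically after 6 days, with inhibition taken as absorbance relative to untreated control wells.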

Alternaria alternata = Alternaria alternata in vitro cell test; type: cell-based; conditions: 120 h, 20 ppm of active ingredient, liquid culture, 5 days incubation, spectrometric measurement of mycelium growth, read-out: efficacy (inhibition of fungal growth)
Outline: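 Liquid culture assay in which A. alternata spores in medium received DMSO-solubilized compound (final DMSO ≤1%). After 5 days, mycelium growth was measured spectrometrically. Inhibition was calculated against fungicide-free control wells.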

[3] = system: Colletotrichum lindemuthianum; test: B-8. Colletotrichum lindemuthianum in vitro cell test; type: cell-based; conditions: 144 h, 20 ppm of active ingredient, 6 days incubation, liquid culture, absorbance, read-out: efficacy (inhibition of fungal growth)
Outline: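 Spore suspension of C. lindemuthianum in liquid medium exposed to DMSO-solubilized compounds (final DMSO ≤1%) for 6 days. Mycelial growth read by absorbance, with inhibition calculated relative to compound-free control wells.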

Sphaerotheca fuliginea = test: In vivo preventive test on Sphaerotheca fuliginea (powdery mildew on cucurbits); conditions: Podosphaera fuliginea, 192 h; 500 ppm of active ingredient; preventive spray on gherkin; evaluated 8 days after inoculation; read-out: efficacy
Outline: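 Young gherkin plants were sprayed with compound in DMSO/acetone/Tween 80 diluted in water. They were inoculated 24 h later with a spore suspension of Sphaerotheca fuliginea. Plants were then kept for 8 days at 20 °C and 70–80% relative humidity.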

Pyrenophora teres [4] = test: In vivo preventive test on Pyrenophora teres (net blotch on barley); conditions: 240 h, 500 ppm of active ingredient, preventive spray on barley, evaluated 10 days after inoculation, read-out: efficacy
Outline: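 Young barley plants sprayed preventively with compound formulated in DMSO/acetone/Tween 80 and diluted in water; controls got solvent only. Inoculated 24 hours later with P. teres spore suspension, then held 48 hours at 20° C, 100% RH and 8 days at 20° C, 70-80% RH.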

Alternaria brassicae = test: In vivo preventive test on Alternaria brassicae (leaf spot on radish or cabbage); conditions: 500 ppm of active ingredient, preventive spray on radish or cabbage, evaluated 3 to 4 days after inoculation, read-out: efficacy
Outline: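 Young radish or cabbage plants were sprayed with compound dissolved in DMSO/acetone/Tween 80 and diluted in water; controls received solvent only. Inoculation by spraying A. brassicae spore suspension 24 h later, then 3–4 days at 20 °C and 100% relative humidity.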

Row | SMILES | pest or weed control at 500 ppm [1] | inhibition at 20 ppm (Pyrenophora teres [2]) | inhibition at 20 ppm (Botrytis cinerea) | inhibition at 20 ppm (Alternaria alternata) | inhibition at 20 ppm [3] | pest or weed control at 500 ppm (Sphaerotheca fuliginea) | pest or weed control at 500 ppm (Pyrenophora teres [4]) | pest or weed control at 500 ppm (Alternaria brassicae)
1 | Cc1ccc(C(F)(F)CNC(=O)c2c(Oc3cccc(C(F)F)c3)nnc3c2CCCC3)c(C)c1 [I-129] | 90 to 100% | 90 to 100% | 90 to 100% | 90 to 100% | 90 to 100% | 90 to 100% | 90 to 100% | 90 to 100%
2 | Cc1ccc2c(C(=O)NCC(F)(F)c3ccc(C)c(C)c3)c(Oc3cccc(C(F)(F)F)c3)nnc2c1 [I-246] | 80 to 89% | 90 to 100% | 90 to 100% | 90 to 100% | 90 to 100% | 90 to 100% | 80 to 89% | 90 to 100%
3 | Cc1cccc(Oc2cnc3ccccc3c2C(=O)NCC(F)(F)c2ccc(C)cc2C)c1 [I-222] | 70 to 79% | 90 to 100% | 90 to 100% | 90 to 100% | 90 to 100% | 90 to 100% | 80 to 89% | 90 to 100%
4 | O=C(NCC(F)(F)c1ccc(Br)cc1Cl)c1c(Oc2cccc(Cl)c2F)nnc2c1CCC2 [I-213] | 90 to 100% | 90 to 100% | 90 to 100% | 90 to 100% | 90 to 100% | 90 to 100% | 80 to 89% | 90 to 100%
5 | Cc1ccc(C(F)CNC(=O)c2c(Oc3cccc(Cl)c3F)nnc3c2CCCC3)c(C)c1 (centres unmarked) [I-136] | 90 to 100% | 90 to 100% | 90 to 100% | 90 to 100% | 90 to 100% | 90 to 100% | 90 to 100% | 90 to 100%
6 | Cc1cc(Cl)ccc1C(F)(F)CNC(=O)c1c(Oc2cccc(Cl)c2F)nnc2c1CCC2 [I-148] | 90 to 100% | 90 to 100% | 90 to 100% | 90 to 100% | 80 to 89% | 90 to 100% | 90 to 100% | 90 to 100%
7 | Cc1ccc(C(F)(F)CNC(=O)c2c(Oc3cccc(Cl)c3F)nnc3c2CCCC3)c(C)c1 [I-130] | 90 to 100% | 90 to 100% | 90 to 100% | 90 to 100% | 90 to 100% | 90 to 100% | 90 to 100% | 90 to 100%
8 | O=C(NCC(F)c1ccc(Cl)cc1Cl)c1c(Oc2cccc(Cl)c2F)nnc2c1CCC2 (centres unmarked) [I-188] | 90 to 100% | 90 to 100% | 90 to 100% | 90 to 100% | 90 to 100% | 90 to 100% | 90 to 100% | 90 to 100%
9 | Cc1cc(Cl)ccc1C(F)(F)CNC(=O)c1c(Oc2cccc(Cl)c2)nnc2c1CCCC2 [I-146] | 90 to 100% | 90 to 100% | 90 to 100% | 90 to 100% | 70 to 79% | 90 to 100% | 80 to 89% | 90 to 100%
10 | O=C(NCC(F)c1ccc(Cl)cc1Cl)c1c(Oc2cccc(C(F)(F)F)c2)nnc2c1CCCC2 (centres unmarked) [I-118] | 90 to 100% | 90 to 100% | 90 to 100% | 90 to 100% | 90 to 100% | 90 to 100% | 90 to 100% | 90 to 100%
